According to ChEMBL document CHEMBL1153717:

target: T1, Low molecular weight protein-tyrosine phosphatase A (Mycobacterium tuberculosis, UniProt P9WIA1); assay: Inhibition of Mycobacterium tuberculosis PtpA; conditions: not given
T1 sequence (P9WIA1 whole entry): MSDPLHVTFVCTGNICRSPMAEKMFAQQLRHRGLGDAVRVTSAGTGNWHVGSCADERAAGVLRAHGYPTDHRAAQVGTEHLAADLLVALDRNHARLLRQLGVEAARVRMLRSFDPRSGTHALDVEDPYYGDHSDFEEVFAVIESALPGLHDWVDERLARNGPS

O=C(Nc1nc2ccccc2[nH]1)c1ccc(C(F)(F)P(=O)(O)O)cc1 was tested, and the Ki was “ND(Insoluble)”.

same assay, conditions: read-out: Ki

First: O=C(NC1CCCC1)c1ccc(C(F)(F)P(=O)(O)O)cc1
Second: O=C(NCC1CCCC1)c1ccc(C(F)(F)P(=O)(O)O)cc1
The Ki of the first is lower: 72.4 µM for the first, over 100 µM for the second.

O=P(O)(O)C(F)(F)c1ccc(CNc2ccccc2)cc1 and O=C(Cc1ccc(C(F)(F)P(=O)(O)O)cc1)Nc1ccccc1 cannot be ordered by Ki: over 100 µM for the first, over 100 µM for the second.

Compared with O=P(O)(O)C(F)(F)c1ccc(Br)cc1, O=C(O)c1ccc(C(F)(F)P(=O)(O)O)cc1 is higher in Ki: 92.3 µM for the first, over 100 µM for the second.

O=P(O)(O)C(F)(F)c1ccc(-c2ccccc2)cc1 and O=P(O)(O)C(F)(F)c1ccc(COc2ccccc2)cc1 cannot be ordered by Ki: over 100 µM for the first, over 100 µM for the second.

CC(C)NC(=O)c1ccc(C(F)(F)P(=O)(O)O)cc1 and CNC(=O)c1ccc(C(F)(F)P(=O)(O)O)cc1 cannot be ordered by Ki: over 100 µM for the first, over 100 µM for the second.

Going from O=C(Nc1ccc(Cl)cc1)c1ccc(C(F)(F)P(=O)(O)O)cc1 to O=C(Nc1ccc(Br)cc1)c1ccc(C(F)(F)P(=O)(O)O)cc1, the Ki falls from 16.8 µM to 10.3 µM (1.6-fold).

Going from O=P(O)(O)C(F)(F)c1ccc(S(=O)(=O)Nc2ccccc2)cc1 to O=C(Nc1ccccc1)c1ccc(C(F)(F)P(=O)(O)O)cc1, the Ki falls from over 100 µM to 24 µM. The second binds more tightly here.

First: O=[N+]([O-])c1ccc(C(F)(F)P(=O)(O)O)cc1
Second: O=C(NCC(F)(F)F)c1ccc(C(F)(F)P(=O)(O)O)cc1
The Ki of the first is 1.5-fold higher: 75.4 µM for the first, 49.7 µM for the second. The second binds more tightly here.

First: O=C(Nc1ccccc1Br)c1ccc(C(F)(F)P(=O)(O)O)cc1
Second: O=C(Nc1ccccc1F)c1ccc(C(F)(F)P(=O)(O)O)cc1
The Ki of the first is lower: 44.6 µM for the first, over 100 µM for the second. The first binds more tightly here.

O=C(NCc1ccccc1)c1ccc(C(F)(F)P(=O)(O)O)cc1 and O=C(NCCc1ccccc1)c1ccc(C(F)(F)P(=O)(O)O)cc1 are within 1.5-fold of each other in Ki: 43.1 µM for the first, 61.6 µM for the second.

Going from O=C(Nc1ccccc1)c1cccc(C(F)(F)P(=O)(O)O)c1 to O=C(Nc1ccc(C(F)(F)P(=O)(O)O)cc1)c1ccccc1, the Ki falls from over 100 µM to 65.5 µM. The second binds more tightly here.

Compared with O=C(Nc1ccc(F)cc1)c1ccc(C(F)(F)P(=O)(O)O)cc1, O=C(Nc1cccc(F)c1)c1ccc(C(F)(F)P(=O)(O)O)cc1 is 1.8-fold higher in Ki: 22.7 µM for the first, 41.8 µM for the second.

Going from O=C(Nc1cccc(C(F)(F)F)c1)c1ccc(C(F)(F)P(=O)(O)O)cc1 to O=C(Nc1ccc(C(F)(F)F)cc1)c1ccc(C(F)(F)P(=O)(O)O)cc1, the Ki rises from 10.7 µM to 18.5 µM (1.7-fold). The first binds more tightly here.

O=C(Nc1cc(C(F)(F)F)cc(C(F)(F)F)c1)c1ccc(C(F)(F)P(=O)(O)O)cc1 and O=C(Nc1ccc(C(F)(F)P(=O)(O)O)cc1)Nc1cc(C(F)(F)F)cc(C(F)(F)F)c1 are within 1.5-fold of each other in Ki: 3.3 µM for the first, 3.1 µM for the second.

First: O=P(O)(O)C(F)(F)c1ccc2c(cnn2Cc2ccccc2)c1
Second: O=P(O)(O)C(F)(F)c1ccc2nn(Cc3ccccc3)cc2c1
The Ki of the first is higher: over 100 µM for the first, 84.4 µM for the second. The second binds more tightly here.

Going from CN(C(=O)c1ccc(C(F)(F)P(=O)(O)O)cc1)c1ccccc1 to O=C(Nc1ccccc1Cl)c1ccc(C(F)(F)P(=O)(O)O)cc1, the Ki falls from over 100 µM to 68 µM. The second binds more tightly here.

First: Cn1cc(-c2ccc(C(F)(F)P(=O)(O)O)cc2)cn1
Second: O=C(Nc1nccs1)c1ccc(C(F)(F)P(=O)(O)O)cc1
The Ki of the first is higher: over 100 µM for the first, 33 µM for the second. The second binds more tightly here.

First: O=C(Nc1ccc(Br)c(C(F)(F)F)c1)c1ccc(C(F)(F)P(=O)(O)O)cc1
Second: O=C(Nc1ccc(F)c(C(F)(F)F)c1)c1ccc(C(F)(F)P(=O)(O)O)cc1
The Ki of the first is 2.3-fold lower: 4.9 µM for the first, 11.4 µM for the second. The first binds more tightly here.

Compared with O=C(Nc1cccc(Cl)c1)c1ccc(C(F)(F)P(=O)(O)O)cc1, O=C(Nc1cccc(Br)c1)c1ccc(C(F)(F)P(=O)(O)O)cc1 is 1.9-fold lower in Ki: 34.9 µM for the first, 18.2 µM for the second. The second binds more tightly here.

Compared with O=C(Nc1ccccc1C(F)(F)F)c1ccc(C(F)(F)P(=O)(O)O)cc1, O=C(Nc1ccc(Cl)c(C(F)(F)F)c1)c1ccc(C(F)(F)P(=O)(O)O)cc1 is 9.1-fold lower in Ki: 54.8 µM for the first, 6 µM for the second.

Going from O=C(Nc1cc(C(F)(F)F)c(Br)c(C(F)(F)F)c1)c1ccc(C(F)(F)P(=O)(O)O)cc1 to CCN1CCC(NC(=O)c2ccc(C(F)(F)P(=O)(O)O)cc2)CC1, the Ki rises from 1.4 µM to over 100 µM. The first binds more tightly here.

target: T2, Tyrosine-protein phosphatase non-receptor type 1 (Homo sapiens, UniProt P18031); assay: Inhibition of human PTP1B; conditions: not given
T2 sequence (P18031 whole entry): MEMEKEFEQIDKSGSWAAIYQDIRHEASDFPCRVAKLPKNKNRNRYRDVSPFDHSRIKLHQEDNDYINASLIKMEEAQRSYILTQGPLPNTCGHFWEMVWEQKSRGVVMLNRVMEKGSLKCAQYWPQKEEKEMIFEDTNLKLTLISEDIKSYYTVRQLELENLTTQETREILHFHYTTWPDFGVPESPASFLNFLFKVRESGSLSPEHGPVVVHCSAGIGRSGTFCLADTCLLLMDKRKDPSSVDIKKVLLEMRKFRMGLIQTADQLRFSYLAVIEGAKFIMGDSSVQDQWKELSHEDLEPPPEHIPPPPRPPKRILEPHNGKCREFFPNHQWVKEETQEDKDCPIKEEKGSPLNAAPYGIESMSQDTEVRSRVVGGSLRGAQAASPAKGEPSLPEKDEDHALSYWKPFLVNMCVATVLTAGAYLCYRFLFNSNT

Work on O=C(Nc1cc(C(F)(F)F)c(Br)c(C(F)(F)F)c1)c1ccc(C(F)(F)P(=O)(O)O)cc1 yielded a Ki of over 100 µM.

target: T3, Tyrosine-protein phosphatase non-receptor type 2 (Homo sapiens, UniProt P17706); assay: Inhibition of human TCPTP; conditions: not given
T3 sequence (P17706 whole entry): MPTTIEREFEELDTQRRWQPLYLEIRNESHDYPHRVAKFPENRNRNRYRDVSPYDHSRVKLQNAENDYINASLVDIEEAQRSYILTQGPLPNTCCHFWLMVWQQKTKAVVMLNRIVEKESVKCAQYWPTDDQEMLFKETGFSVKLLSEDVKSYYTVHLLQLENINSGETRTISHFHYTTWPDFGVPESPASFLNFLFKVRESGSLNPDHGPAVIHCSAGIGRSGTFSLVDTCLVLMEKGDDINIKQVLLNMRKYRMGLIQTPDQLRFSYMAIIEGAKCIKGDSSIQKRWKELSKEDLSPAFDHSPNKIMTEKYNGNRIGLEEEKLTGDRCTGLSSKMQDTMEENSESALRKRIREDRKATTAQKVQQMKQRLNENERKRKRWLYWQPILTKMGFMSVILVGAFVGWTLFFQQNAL

With O=C(Nc1cc(C(F)(F)F)c(Br)c(C(F)(F)F)c1)c1ccc(C(F)(F)P(=O)(O)O)cc1 the Ki was over 100 µM.

target: Dual specificity protein phosphatase 3 (Homo sapiens, UniProt P51452); assay: Inhibition of human VHR; conditions: not given
Sequence (P51452 whole entry): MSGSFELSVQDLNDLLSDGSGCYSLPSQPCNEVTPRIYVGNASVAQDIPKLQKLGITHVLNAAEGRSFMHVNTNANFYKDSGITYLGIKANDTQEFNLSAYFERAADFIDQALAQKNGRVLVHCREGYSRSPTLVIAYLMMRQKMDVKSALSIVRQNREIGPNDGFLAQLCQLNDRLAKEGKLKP

O=C(Nc1cc(C(F)(F)F)c(Br)c(C(F)(F)F)c1)c1ccc(C(F)(F)P(=O)(O)O)cc1 gave a Ki of over 100 µM.

target: T4, Receptor-type tyrosine-protein phosphatase C (Homo sapiens, UniProt P08575); assay: Inhibition of human CD45; conditions: not given
T4 sequence (P08575 whole entry): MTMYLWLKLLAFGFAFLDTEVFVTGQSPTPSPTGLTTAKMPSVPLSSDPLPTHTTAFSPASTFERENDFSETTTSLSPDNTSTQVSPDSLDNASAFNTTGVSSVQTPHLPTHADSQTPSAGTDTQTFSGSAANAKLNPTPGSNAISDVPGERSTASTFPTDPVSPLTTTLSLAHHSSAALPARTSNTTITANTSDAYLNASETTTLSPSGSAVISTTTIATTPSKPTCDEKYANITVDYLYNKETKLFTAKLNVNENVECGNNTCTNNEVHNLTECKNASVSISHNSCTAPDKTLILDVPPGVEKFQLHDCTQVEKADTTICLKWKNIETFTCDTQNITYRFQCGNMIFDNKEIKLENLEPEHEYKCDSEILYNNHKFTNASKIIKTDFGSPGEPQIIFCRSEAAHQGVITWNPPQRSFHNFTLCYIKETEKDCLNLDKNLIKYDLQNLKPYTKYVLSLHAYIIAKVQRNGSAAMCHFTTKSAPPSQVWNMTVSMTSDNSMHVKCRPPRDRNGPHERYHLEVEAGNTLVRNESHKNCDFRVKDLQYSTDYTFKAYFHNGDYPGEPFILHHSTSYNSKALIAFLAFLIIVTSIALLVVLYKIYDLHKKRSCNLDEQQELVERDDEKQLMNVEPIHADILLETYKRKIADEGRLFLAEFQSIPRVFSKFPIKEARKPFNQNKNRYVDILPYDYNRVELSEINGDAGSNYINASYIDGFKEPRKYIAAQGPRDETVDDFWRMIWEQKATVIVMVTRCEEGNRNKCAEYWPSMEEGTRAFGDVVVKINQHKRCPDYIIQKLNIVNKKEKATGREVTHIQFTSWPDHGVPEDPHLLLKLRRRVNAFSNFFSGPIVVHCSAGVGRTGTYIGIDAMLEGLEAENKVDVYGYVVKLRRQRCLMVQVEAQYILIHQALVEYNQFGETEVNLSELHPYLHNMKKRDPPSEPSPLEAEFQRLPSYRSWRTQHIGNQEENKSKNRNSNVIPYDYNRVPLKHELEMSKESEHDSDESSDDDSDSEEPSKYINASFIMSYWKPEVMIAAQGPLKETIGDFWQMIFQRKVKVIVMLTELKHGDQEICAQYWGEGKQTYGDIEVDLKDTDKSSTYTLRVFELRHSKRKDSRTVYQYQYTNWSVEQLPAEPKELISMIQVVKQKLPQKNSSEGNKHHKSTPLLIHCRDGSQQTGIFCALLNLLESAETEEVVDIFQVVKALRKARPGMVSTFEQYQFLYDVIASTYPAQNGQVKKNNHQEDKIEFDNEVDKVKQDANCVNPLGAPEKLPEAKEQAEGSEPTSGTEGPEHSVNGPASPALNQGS

For O=C(Nc1cc(C(F)(F)F)c(Br)c(C(F)(F)F)c1)c1ccc(C(F)(F)P(=O)(O)O)cc1, the Ki was over 100 µM.

target: Receptor-type tyrosine-protein phosphatase F (Homo sapiens, UniProt P10586); assay: Inhibition of human LAR; conditions: not given
Sequence (P10586 whole entry): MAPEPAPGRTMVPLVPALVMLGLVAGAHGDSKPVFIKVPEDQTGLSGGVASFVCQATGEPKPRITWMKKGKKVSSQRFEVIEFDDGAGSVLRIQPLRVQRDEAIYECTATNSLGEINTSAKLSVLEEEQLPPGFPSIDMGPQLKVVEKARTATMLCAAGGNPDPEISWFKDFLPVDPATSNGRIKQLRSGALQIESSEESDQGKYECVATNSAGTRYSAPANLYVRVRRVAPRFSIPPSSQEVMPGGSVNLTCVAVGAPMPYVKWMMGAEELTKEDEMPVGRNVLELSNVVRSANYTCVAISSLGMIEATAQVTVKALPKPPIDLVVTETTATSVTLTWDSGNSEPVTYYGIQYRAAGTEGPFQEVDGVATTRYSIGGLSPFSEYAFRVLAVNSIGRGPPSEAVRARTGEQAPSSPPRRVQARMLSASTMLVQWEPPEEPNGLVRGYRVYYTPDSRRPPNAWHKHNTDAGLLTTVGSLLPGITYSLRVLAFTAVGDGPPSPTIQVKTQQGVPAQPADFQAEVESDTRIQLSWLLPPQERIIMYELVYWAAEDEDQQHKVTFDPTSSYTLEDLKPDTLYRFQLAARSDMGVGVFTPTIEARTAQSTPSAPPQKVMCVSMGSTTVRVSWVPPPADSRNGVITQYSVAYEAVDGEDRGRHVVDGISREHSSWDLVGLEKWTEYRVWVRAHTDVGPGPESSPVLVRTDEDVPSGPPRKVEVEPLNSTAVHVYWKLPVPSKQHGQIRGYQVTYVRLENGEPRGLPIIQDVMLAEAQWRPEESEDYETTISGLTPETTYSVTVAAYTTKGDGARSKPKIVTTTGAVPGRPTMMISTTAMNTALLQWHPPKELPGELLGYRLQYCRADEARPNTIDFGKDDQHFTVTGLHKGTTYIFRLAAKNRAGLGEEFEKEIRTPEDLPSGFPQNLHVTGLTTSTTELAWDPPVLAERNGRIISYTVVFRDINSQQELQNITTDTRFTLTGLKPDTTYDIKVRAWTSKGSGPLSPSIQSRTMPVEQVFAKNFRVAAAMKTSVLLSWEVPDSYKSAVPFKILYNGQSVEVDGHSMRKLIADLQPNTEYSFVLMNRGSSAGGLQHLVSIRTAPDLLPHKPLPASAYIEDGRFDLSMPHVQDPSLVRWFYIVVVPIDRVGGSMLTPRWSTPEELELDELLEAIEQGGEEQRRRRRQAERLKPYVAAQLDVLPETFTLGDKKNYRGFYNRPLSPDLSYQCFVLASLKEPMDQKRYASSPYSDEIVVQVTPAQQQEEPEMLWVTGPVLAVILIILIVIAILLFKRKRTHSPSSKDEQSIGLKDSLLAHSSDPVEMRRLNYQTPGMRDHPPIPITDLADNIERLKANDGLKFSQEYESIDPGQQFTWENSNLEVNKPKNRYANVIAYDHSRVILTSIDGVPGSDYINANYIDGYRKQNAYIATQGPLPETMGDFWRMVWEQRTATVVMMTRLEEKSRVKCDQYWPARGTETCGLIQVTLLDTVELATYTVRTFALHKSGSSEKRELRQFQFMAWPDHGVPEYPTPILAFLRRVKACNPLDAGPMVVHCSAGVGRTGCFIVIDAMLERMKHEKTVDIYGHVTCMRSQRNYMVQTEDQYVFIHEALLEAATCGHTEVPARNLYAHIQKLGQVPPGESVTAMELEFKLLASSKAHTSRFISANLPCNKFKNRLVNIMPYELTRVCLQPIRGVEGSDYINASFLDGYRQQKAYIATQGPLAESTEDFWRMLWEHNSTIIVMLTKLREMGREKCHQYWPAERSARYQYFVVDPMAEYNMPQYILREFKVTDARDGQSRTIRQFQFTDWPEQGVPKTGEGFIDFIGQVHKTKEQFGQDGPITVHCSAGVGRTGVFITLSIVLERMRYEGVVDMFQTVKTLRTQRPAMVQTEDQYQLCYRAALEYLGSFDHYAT

With O=C(Nc1cc(C(F)(F)F)c(Br)c(C(F)(F)F)c1)c1ccc(C(F)(F)P(=O)(O)O)cc1 the Ki was over 100 µM.

target: T5, Low molecular weight phosphotyrosine protein phosphatase (Homo sapiens, UniProt P24666); assay: Inhibition of human HCPTPA; conditions: not given
T5 sequence (P24666 whole entry): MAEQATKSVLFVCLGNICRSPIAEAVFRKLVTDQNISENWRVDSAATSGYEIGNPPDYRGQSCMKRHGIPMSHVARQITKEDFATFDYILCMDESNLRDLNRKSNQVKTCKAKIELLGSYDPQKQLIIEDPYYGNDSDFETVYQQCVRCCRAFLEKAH

For O=C(Nc1cc(C(F)(F)F)c(Br)c(C(F)(F)F)c1)c1ccc(C(F)(F)P(=O)(O)O)cc1, the Ki was 14.8 µM.
